The source of these data is PubChem BioAssay AID1259407 (Chemical Carcinogenesis Research Information System (CCRIS), 2018).

This data set relates to CCRIS mutagenicity, Ames/micronucleus/aberration tests. Description: CCRIS mutagenicity studies.
The mark [1] stands for this setting: Test System: AMES SALMONELLA TYPHIMURIUM, Strain/Indicator: TA98, Metabolic Activation: NONE, Method: STANDARD PLATE.
Setting [2] is: Test System: AMES SALMONELLA TYPHIMURIUM, Strain/Indicator: TA100, Metabolic Activation: NONE, Method: STANDARD PLATE.
Where [3] appears, read: Test System: AMES SALMONELLA TYPHIMURIUM, Strain/Indicator: TA98, Metabolic Activation: NONE, Method: PREINCUBATION
[4] abbreviates: Test System: AMES SALMONELLA TYPHIMURIUM, Strain/Indicator: TA100, Metabolic Activation: NONE, Method: PREINCUBATION
[5] abbreviates: Test System: AMES SALMONELLA TYPHIMURIUM, Strain/Indicator: TA1535, Metabolic Activation: NONE, Method: PREINCUBATION
The mark [6] stands for this setting: Test System: AMES SALMONELLA TYPHIMURIUM, Strain/Indicator: TA1537, Metabolic Activation: NONE, Method: PREINCUBATION

Active and inactive are the calls of the source. The rule behind the calls is not given here.

For the compound `C/C(=C(/OCCOc1ccc(Cl)cc1)c1ccc(Cl)cc1Cl)n1ccnc1`, the mutagenic call is “inactive; negative” under setting [1]; “inactive; negative” (Test System: AMES SALMONELLA TYPHIMURIUM, Strain/Indicator: TA98, Metabolic Activation: RAT, LIVER, S-9, PHENOBARBITAL AND 5,6-BENZOFLAVONE, Method: STANDARD PLATE); “inactive; negative” under setting [2]; “inactive; negative” (Test System: AMES SALMONELLA TYPHIMURIUM, Strain/Indicator: TA100, Metabolic Activation: RAT, LIVER, S-9, PHENOBARBITAL AND 5,6-BENZOFLAVONE, Method: STANDARD PLATE); “inactive; negative” (Test System: AMES SALMONELLA TYPHIMURIUM, Strain/Indicator: TA1535, Metabolic Activation: NONE, Method: STANDARD PLATE); “inactive; negative” (Test System: AMES SALMONELLA TYPHIMURIUM, Strain/Indicator: TA1535, Metabolic Activation: RAT, LIVER, S-9, PHENOBARBITAL AND 5,6-BENZOFLAVONE, Method: STANDARD PLATE). The mutagenic call was “inactive; negative” (Test System: AMES SALMONELLA TYPHIMURIUM, Strain/Indicator: TA1537, Metabolic Activation: NONE, Method: STANDARD PLATE); “inactive; negative” (Test System: AMES SALMONELLA TYPHIMURIUM, Strain/Indicator: TA1537, Metabolic Activation: RAT, LIVER, S-9, PHENOBARBITAL AND 5,6-BENZOFLAVONE, Method: STANDARD PLATE); “inactive; negative” (Test System: E. COLI, Strain/Indicator: WP2 UVRA, Metabolic Activation: NONE, Method: STANDARD PLATE); “inactive; negative” (Test System: E. COLI, Strain/Indicator: WP2 UVRA, Metabolic Activation: RAT, LIVER, S-9, PHENOBARBITAL AND 5,6-BENZOFLAVONE, Method: STANDARD PLATE).
For `O=C(O)/C=C\Cl`, the mutagenic call runs as follows: (Test System: AMES SALMONELLA TYPHIMURIUM, Strain/Indicator: TA97, Metabolic Activation: RAT, LIVER, S-9, PCB, Method: STANDARD PLATE) “active; positive”; (Test System: AMES SALMONELLA TYPHIMURIUM, Strain/Indicator: TA102, Metabolic Activation: RAT, LIVER, S-9, PCB, Method: STANDARD PLATE) “active; positive”.
For `O=C(O)C1Cc2c([nH]c3ccccc23)C(CO)N1` (configuration not stated), the mutagenic call by setting is: (Test System: AMES SALMONELLA TYPHIMURIUM, Strain/Indicator: TA97, Metabolic Activation: NONE, Method: STANDARD PLATE) “inactive; negative”; (Test System: AMES SALMONELLA TYPHIMURIUM, Strain/Indicator: TA97, Metabolic Activation: RAT, LIVER, S-9, AROCLOR 1254, Method: STANDARD PLATE) “inactive; negative”; under setting [1], “inactive; negative”; (Test System: AMES SALMONELLA TYPHIMURIUM, Strain/Indicator: TA98, Metabolic Activation: RAT, LIVER, S-9, AROCLOR 1254, Method: STANDARD PLATE) “inactive; negative”; under setting [2], “inactive; negative”; (Test System: AMES SALMONELLA TYPHIMURIUM, Strain/Indicator: TA100, Metabolic Activation: RAT, LIVER, S-9, AROCLOR 1254, Method: STANDARD PLATE) “inactive; negative”.
Turning to `COc1ccccc1NC(=O)c1csc([N+](=O)[O-])c1`, the mutagenic call runs as follows: under setting [1], “active; positive”; under setting [2], “active; positive”.
Turning to `O=Nc1ccc(Oc2ccccc2)cc1`, the mutagenic call under setting [1] was “active; positive” and the mutagenic call (Test System: AMES SALMONELLA TYPHIMURIUM, Strain/Indicator: TA100, Metabolic Activation: GUINEA PIG, LIVER, S-9, KANECLOR 500, Method: STANDARD PLATE) was “active; positive”.
As for `CC/C(=C(/c1ccc(OCCN(C)C)cc1)c1ccc(OP(=O)(O)O)cc1)c1ccc(C(C)C)cc1`, the mutagenic call is “inactive; negative” under setting [3]; “inactive; negative” (Test System: AMES SALMONELLA TYPHIMURIUM, Strain/Indicator: TA98, Metabolic Activation: RAT, LIVER, S-9, Method: PREINCUBATION); “inactive; negative” under setting [4]; “inactive; negative” (Test System: AMES SALMONELLA TYPHIMURIUM, Strain/Indicator: TA100, Metabolic Activation: RAT, LIVER, S-9, Method: PREINCUBATION); “inactive; negative” under setting [5]; “inactive; negative” (Test System: AMES SALMONELLA TYPHIMURIUM, Strain/Indicator: TA1535, Metabolic Activation: RAT, LIVER, S-9, Method: PREINCUBATION). For the same compound, the mutagenic call is “inactive; negative” under setting [6]; “inactive; negative” (Test System: AMES SALMONELLA TYPHIMURIUM, Strain/Indicator: TA1537, Metabolic Activation: RAT, LIVER, S-9, Method: PREINCUBATION); “inactive; negative” (Test System: E. COLI, Strain/Indicator: WP2 UVRA, Metabolic Activation: NONE, Method: PREINCUBATION); “inactive; negative” (Test System: E. COLI, Strain/Indicator: WP2 UVRA, Metabolic Activation: RAT, LIVER, S-9, Method: PREINCUBATION).
In the case of `CCCCC(CC)COS(=O)(=O)O` (configuration not stated), the mutagenic call is “inactive; negative” (End Point: IN VITRO CHROMOSOMAL ABERRATIONS, Test System: CHO-LB CELLS, Metabolic Activation: NONE); “inactive; negative” (End Point: IN VITRO CHROMOSOMAL ABERRATIONS, Test System: CHO-LB CELLS, Metabolic Activation: RAT, LIVER, S-9, AROCLOR 1254); “inactive; negative” (Test System: AMES SALMONELLA TYPHIMURIUM, Strain/Indicator: TA98, Metabolic Activation: HAMSTER, LIVER, S-9, AROCLOR 1254 (10%), Method: PREINCUBATION); “inactive; negative” under setting [3]; “inactive; negative” (Test System: AMES SALMONELLA TYPHIMURIUM, Strain/Indicator: TA98, Metabolic Activation: RAT, LIVER, S-9, AROCLOR 1254 (10%), Method: PREINCUBATION); “inactive; negative” (Test System: AMES SALMONELLA TYPHIMURIUM, Strain/Indicator: TA100, Metabolic Activation: HAMSTER, LIVER, S-9, AROCLOR 1254 (10%), Method: PREINCUBATION). In addition, the mutagenic call is “inactive; negative” under setting [4]; “inactive; negative” (Test System: AMES SALMONELLA TYPHIMURIUM, Strain/Indicator: TA100, Metabolic Activation: RAT, LIVER, S-9, AROCLOR 1254 (10%), Method: PREINCUBATION); “inactive; negative” (Test System: AMES SALMONELLA TYPHIMURIUM, Strain/Indicator: TA1535, Metabolic Activation: HAMSTER, LIVER, S-9, AROCLOR 1254 (10%), Method: PREINCUBATION); “inactive; negative” under setting [5]; “inactive; negative” (Test System: AMES SALMONELLA TYPHIMURIUM, Strain/Indicator: TA1535, Metabolic Activation: RAT, LIVER, S-9, AROCLOR 1254 (10%), Method: PREINCUBATION); “inactive; negative” (Test System: AMES SALMONELLA TYPHIMURIUM, Strain/Indicator: TA1537, Metabolic Activation: HAMSTER, LIVER, S-9, AROCLOR 1254 (10%), Method: PREINCUBATION). The mutagenic call is, setting by setting: under setting [6], “inactive; negative”; (Test System: AMES SALMONELLA TYPHIMURIUM, Strain/Indicator: TA1537, Metabolic Activation: RAT, LIVER, S-9, AROCLOR 1254 (10%), Method: PREINCUBATION) “inactive; negative”; (Test System: MOUSE LYMPHOMA, Strain/Indicator: L5178Y (TK+/TK-), Metabolic Activation: NONE, Method: SUSPENSION/PLATE) “inactive; negative”; (Test System: MOUSE LYMPHOMA, Strain/Indicator: L5178Y (TK+/TK-), Metabolic Activation: RAT, LIVER, S-9, AROCLOR 1254, Method: SUSPENSION/PLATE) “inactive; negative”.
With `CC(=O)NO`, the mutagenic call reads like this: under setting [1], “active; positive”; (Test System: AMES SALMONELLA TYPHIMURIUM, Strain/Indicator: TA98, Metabolic Activation: RAT, LIVER, S-9, Method: STANDARD PLATE) “active; positive”; (Test System: AMES SALMONELLA TYPHIMURIUM, Strain/Indicator: TA100, Metabolic Activation: RAT, LIVER, S-9, Method: STANDARD PLATE) “inactive; negative”.
Take `Cn1c(N=[N+]=[N-])nc2ccc3ccccc3c21`: the mutagenic call is “active; positive” (Test System: AMES SALMONELLA TYPHIMURIUM, Strain/Indicator: TA98(1,8-DNP6), Metabolic Activation: NONE, Method: STANDARD PLATE) and “active; positive” under setting [1].
With `N=C(N)c1ccc2c(N)c(C(=N)N)[nH]c2c1`, the mutagenic call under setting [1] was “inactive; negative”; the mutagenic call (Test System: AMES SALMONELLA TYPHIMURIUM, Strain/Indicator: TA98, Metabolic Activation: RAT, LIVER, S-9, PHENOBARBITAL, Method: STANDARD PLATE) is “inactive; negative”; the mutagenic call under setting [2] is “inactive; negative”; the mutagenic call (Test System: AMES SALMONELLA TYPHIMURIUM, Strain/Indicator: TA100, Metabolic Activation: RAT, LIVER, S-9, PHENOBARBITAL, Method: STANDARD PLATE) was “inactive; negative”.
